Experimental data as given in US20040038861A1, “Methods and compositions for normalizing lipid levels in mammalian tissues” (priority 2001, published 2004).

Columns and labels:
[1] = system: soleus muscle; experiment: Lipid metabolites (free fatty acid, glycerol, triglyceride; enzymatic analysis) in isolated soleus muscle from normally fed rats; format: cell-based, rat
[2] = system: soleus muscle; experiment: Triglyceride and free fatty acid content (enzymatic) in isolated soleus muscle of rats fed high fat diets; format: cell-based, rat; conditions: 1 h
From the text: (§1) High-fatted rats. Groups of male Wistar rats (n=21/diet) were ad libitum fed high-fat diets containing standard rat chow to which 40% (w/w) of lard, corn oil or olive oil had been added, from the time of weaning (age=21 d) until sacrifice at 50 d. Triacylglycerol from lard contains predominantly saturated fatty acids; that from corn oil […], see Table 4.
(§2) Soleus muscle tissue isolation and incuhation.Immersion and incubation media was Krebs-Henseleit buffer (KHB) containing 118.5 mM NaCl, 4.75 mM KCl, 1.18 mM MgSO4.7H2O and KH2PO4, 24.8 mM NaHCO3, 2.54 mM CaCl2 and 10 mM d-glucose. The medium was gassed continuously with 95% O2/5% CO2. […] Soleus muscles of both legs were excised keeping the tissue immersed in KHB; muscles were separated into two equal parts and transferred to the incubation flasks. At the completion of incubation the muscles were snap frozen in liquid nitrogen, and then trimmed of connective tissue and all visible fat. The muscle strips were stored at −80° C. until analysis.
(§3) Lipid extraction and chromatographic separation of fatty acids. Total lipids were extracted from muscle strips by a modified version of the method of Bligh and Dyer (Gorski et al., 1988, Mol & Cell Biochem 178:113-118; 1. Bligh et al., 1959, Can J Biochem Physiol 37: 911-917). Muscles were homogenised (Soniprep 150) in 0.4 ml of deionised water. Solvent volumes used herein were varied according to the water content of the muscle (ie muscle weight) as described (Bligh & Dyer, supra). 2 vols of methanol containing 0.005% butylated hydroxy toluene (BHT) and 1 vol chloroform were added to the muscle suspension. Homogenates were vortexed at maximum speed for 2 minutes and centrifuged at 2,500 g for 4 minutes. Supernatants were recovered and pellets re-extracted with 2 vol methanol, 1 vol chloroform and 0.8 vol 0.2 N HCl. Residues were vortexed for 2 min then centrifuged at 3,500 g for 3 min. After centrifugation the combined supernatants were diluted with 2v each of milli Q water and chloroform and the phases separated by centrifugation at 3,500 g for 4 minutes. The lower chloroform phase was recovered, neutralised by dropwise addition of 0.2 N methanolic NH4OH and evaporated down in a stream of N2. The samples were stored at −80° C. until required.
(§4) Aminopropyl phase (250 mg) was packed into 16 ml teflon columns with teflon frits placed at the top and bottom of the bonded phase. Columns were placed in a Vac Elut apparatus and washed twice with 2 ml portions of hexane (Prasad et al., 1988, J Chromato 428: 221-228; Kaluzny et al., 1985, J Lipid Res 26: 135-140). The dry lipid samples were taken up in two 0.150 ml portions of chloroform and applied to the column under atmospheric pressure. After adsorption the neutral lipids were eluted with 4 ml of chloroform-2-propanol (2:1, v/v) and the free fatty acids eluted with 4 ml of 2% acetic acid in diethyl ether. The solvent containing the free fatty acids was dried under a stream of N2.
Determination of tissue free fatty acids and triacylglycerol concentration by enzymatic analyses. Free fatty acids were separated from total lipid, evaporated under a stream of N2 and stored at −80° C. until analysis. Samples were dissolved in 50 μl of warm ethanol (35-40° C.), and 0.625 ml of a Triton X-100 (6% w/v) solution was added once the ethanol reached room temperature. The solution was stirred for 30 min, then made up to 0.825 ml with the Triton solution. Free fatty acids were quantified using a commercial method (Boehringer Mannheim) adapted for micro analyses (Cobas Mira, Roche Diagnostics), with palmitic acid standards. Triacyl glycerol levels were quantified in the total lipid fraction (Pointe Scientific) with a glycerol standard.
Total lipid was extracted and quantitated. Results are shown in FIGS. 18A NEFA and 18B triglyceride.

[3] = system: soleus muscle; experiment: Individual free fatty acids by gas chromatography in soleus muscle of rats fed high fat diets; set-up: species or system rat; conditions: 1 hour, GC
From the text: as §1, §2, §3, §4
Gas-liquid chromatographic analysis. Dry free fatty acid residues were processed for derivatisation of methyl esters by the boron trifluoride-methanol method (Prasad, supra). 1 ml of boron trifluoride in methanol (BF3) was added to each sample, the sample vials were heated at 70° C. for 5 minutes, shaken vigorously, and baked for a further 10 minutes. Once the samples reached room temperature 0.5 ml milli Q water was added, the sample vials shaken, 0.1 ml heptane was added and the sample shaken again. 0.05 ml of the top heptane layer was removed for GLC analysis. A Model HP5890 Plus Series 2 (Hewlett-Packard) gas chromatograph equipped with a DB-225 column was used to separate the methyl esters of the fatty acids and a Model HP 5890 GC with a Model HP 5973 MS (Hewlett-Packard) GC/MS used to confirm the identity of individual free fatty acids. […]

[4] = rats fed diet high in olive oil

rat CGRP-1 was tested, and the “soleus muscle free fatty acid concentration, agonist alone” value ([1]; 1 pM CGRP, 1 h (FIG. 3C)) was 166 ± 18 nmol/g, the “soleus muscle free fatty acid content, agonist alone” value ([1]; 100 nM, 1 h, normal-fed rats (FIG. 3A, 3B)) was 334 ± 52 nmol/g and the “triacylglycerol (triglyceride) content” value ([1]; soleus, normally fed rats, 60-min, 100 nM amylin or CGRP-1, 4.4 μM norepinephrine, control 1.17±0.15, not significant) was 1.9 ± 0.23 µmol/g. For the same substance, the intramuscular glycerol content ([1]; soleus, normally fed rats, 1 h, 100 nM amylin or CGRP-1, 4.4 μM norepinephrine, control 0.07±0.007) was 0.04 ± 0.008 nmol/g, the “soleus muscle triglyceride content” value ([2]; diet with 40% added lard, 100 nM amylin or CGRP-1, 4.4 μM norepinephrine, control 1.14±0.16) was 0.75 ± 0.08 µmol/g and the “soleus muscle free fatty acid content” value ([2]; diet with 40% added lard, 100 nM amylin or CGRP-1, 4.4 μM norepinephrine, control 43±8) was 64 ± 7 nmol/g. For the same substance, the “soleus muscle triglyceride content” value ([2]; diet with 40% corn oil, 100 nM, control 0.89±0.06 μmol/g) was 0.48±0.06 [mol/g, the “soleus muscle free fatty acid content” value ([2]; diet with 40% corn oil, 100 nM, control 35±4) was 99 ± 17 nmol/g and the “soleus muscle triglyceride content” value ([2]; diet with 40% olive oil, 100 nM, control 0.83±0.1) was 0.52 ± 0.08 µmol/g. The “soleus muscle free fatty acid content” value ([2]; diet with 40% olive oil, 100 nM, control 15±3) was 55 ± 14 nmol/g, the “free fatty acid adrenic C22:4” value ([3]; rats fed diet high in corn oil) was 0.04 ± 0.002 nmol/g wwt and the “free fatty acid arachidic C20:0” value ([3]; rats fed diet high in corn oil) was 0.03 ± 0.005 nmol/g wwt. The “free fatty acid arachidonic C20:4” value ([3]; rats fed diet high in corn oil) was 0.02 ± 0.002 nmol/g wwt, the “free fatty acid cervonic C22:6” value ([3]; rats fed diet high in corn oil) was 0.03 ± 0.003 nmol/g wwt and the “free fatty acid linoleic C18:2” value ([3]; rats fed diet high in corn oil) was 0.18 ± 0.008 nmol/g wwt. The “free fatty acid linolenic C18:3” value ([3]; rats fed diet high in corn oil) was 0.17 ± 0.01 nmol/g wwt, the “free fatty acid margaric C17:0” value ([3]; rats fed diet high in corn oil) was 0.02 ± 0.003 nmol/g wwt and the “free fatty acid myristic C14:0” value ([3]; rats fed diet high in corn oil) was 0.03 ± 0.02 nmol/g wwt. The “free fatty acid oleic C18:1” value ([3]; rats fed diet high in corn oil) was 0.16 ± 0.01 nmol/g wwt, the “free fatty acid palmitic C16:0” value ([3]; rats fed diet high in corn oil) was 0.16 ± 0.03 nmol/g wwt and the “free fatty acid palmitoleic (n-7) C16:1” value ([3]; rats fed diet high in corn oil) was 0.01 ± 0.0008 nmol/g wwt. For the same substance, the “free fatty acid palmitoleic (n-9) C16:1” value ([3]; rats fed diet high in corn oil) was 0.20 ± 0.008 nmol/g wwt, the “free fatty acid pentadecanoic C15:0” value ([3]; rats fed diet high in corn oil) was 0.04 ± 003 nmol/g wwt and the “free fatty acid stearic C18:0” value ([3]; rats fed diet high in corn oil) was 0.39 ± 0.02 nmol/g wwt. For the same substance, the “free fatty acid timnodonic C20:5” value ([3]; rats fed diet high in corn oil) was 0.04 ± 0.001 nmol/g wwt, the “free fatty acid vaccenic C18:1” value ([3]; rats fed diet high in corn oil) was 0.02 ± 0.004 nmol/g wwt and the “free fatty acid adrenic C22:4” value ([3]; rats fed diet high in lard) was 0.04 ± 0.005 nmol/g wwt. The “free fatty acid arachidic C20:0” value ([3]; rats fed diet high in lard) was 0.07 ± 0.004 nmol/g wwt, the “free fatty acid arachidonic C20:4” value ([3]; rats fed diet high in lard) was 0.02 ± 0.001 nmol/g wwt and the “free fatty acid cervonic C22:6” value ([3]; rats fed diet high in lard) was 0.015 ± 0.002 nmol/g wwt. The “free fatty acid linoleic C18:2” value ([3]; rats fed diet high in lard) was 0.23 ± 0.005 nmol/g wwt, the “free fatty acid margaric C17:0” value ([3]; rats fed diet high in lard) was 0.09 ± 0.01 nmol/g wwt and the “free fatty acid myristic C14:0” value ([3]; rats fed diet high in lard) was 0.03 ± 0.007 nmol/g wwt. For the same substance, the “free fatty acid oleic C18:1” value ([3]; rats fed diet high in lard) was 0.25 ± 0.02 nmol/g wwt, the “free fatty acid palmitic C16:0” value ([3]; rats fed diet high in lard) was 0.24 ± 0.01 nmol/g wwt and the “free fatty acid palmitoleic (n-7) C16:1” value ([3]; rats fed diet high in lard) was 0.02 ± 0.005 nmol/g wwt. For the same substance, the “free fatty acid palmitoleic (n-9) C16:1” value ([3]; rats fed diet high in lard) was 0.03 ± 0.003 nmol/g wwt, the “free fatty acid pentadecanoic C15:0” value ([3]; rats fed diet high in lard) was 0.14 ± 0.01 nmol/g wwt and the “free fatty acid stearic C18:0” value ([3]; rats fed diet high in lard) was 0.35 ± 0.06 nmol/g wwt. The “free fatty acid timnodonic C20:5” value ([3]; rats fed diet high in lard) was 0.02 ± 0.002 nmol/g wwt, the “free fatty acid vaccenic C18:1” value ([3]; rats fed diet high in lard) was 0.03 ± 0.006 nmol/g wwt and the “free fatty acid adrenic C22:4” value [3, 4] was 0.03 ± 0.006 nmol/g wwt. The “free fatty acid arachidic C20:0” value [3, 4] was 0.04 ± 0.001 nmol/g wwt, the “free fatty acid arachidonic C20:4” value [3, 4] was 0.02 ± 0.007 nmol/g wwt and the “free fatty acid cervonic C22:6” value [3, 4] was 0.11 ± 0.03 nmol/g wwt. For the same substance, the “free fatty acid linoleic C18:2” value [3, 4] was 0.06 ± 0.01 nmol/g wwt, the “free fatty acid linolenic C18:3” value [3, 4] was 0.03 ± 0.0009 nmol/g wwt and the “free fatty acid margaric C17:0” value [3, 4] was 0.03 ± 0.012 nmol/g wwt. For the same substance, the “free fatty acid myristic C14:0” value [3, 4] was 0.015 ± 0.0009 nmol/g wwt, the “free fatty acid oleic C18:1” value [3, 4] was 0.34 ± 0.01 nmol/g wwt and the “free fatty acid palmitic C16:0” value [3, 4] was 0.20 ± 0.006 nmol/g wwt. For the same substance, the “free fatty acid palmitoleic (n-7) C16:1” value [3, 4] was 0.02 ± 0.002 nmol/g wwt, the “free fatty acid palmitoleic (n-9) C16:1” value [3, 4] was 0.27 ± 0.013 nmol/g wwt and the “free fatty acid pentadecanoic C15:0” value [3, 4] was 0.08 ± 002 nmol/g wwt. For the same substance, the “free fatty acid stearic C18:0” value [3, 4] was 0.12 ± 0.004 nmol/g wwt, the “free fatty acid timnodonic C20:5” value [3, 4] was 0.01 ± 0.001 nmol/g wwt and the “free fatty acid vaccenic C18:1” value [3, 4] was 0.17 ± 0.008 nmol/g wwt.
